Measurements from US20040152746A1, “Treatment of scarring and related conditions using ppar-gamma activators” (priority 2001, published 2004).
Marks after values point to notes of the source that are not given here.

System: Human dermal fibroblasts differentiated to myofibroblasts with TGF-beta1
Experiment: Myofibroblast number after treatment with pioglitazone (alpha-smooth muscle actin immunohistochemistry)
Format: cell-based
Settings: 3 days differentiation medium with 1 ng/ml TGF-beta1, % positive cells/total cells, control 3.47
Protocol: Human dermal fibroblasts were cultured on sterile cover-slips and allowed to adhere for 24 hours in fibroblast medium, i.e. (1.0 ml L-Glutamine (200 mM; Gibco), 1.0 ml non-essential amino acids, NEAA(100×; Gibco), 1.0 ml penicillin/streptomycin (100×Gibco), 10 ml new-born calf serum, NBCS (Gibco), 87 ml Dulbecco's modified Eagle's Medium, DMEM (Gibco)). At confluence, the medium was changed to myofibroblast differentiation medium, i.e. 1.0 ml L-Glutamine (200 mM; Gibco), 1.0 ml non-essential amino acids, NEAA(100×; Gibco), 10 ml penicillin/streptomycin (100×Gibco), 1 ml ITS (Insulin, Transferrin, Selenium)(100×Gibco)) supplemented with 1 ng/ml TGF-beta1 (Sigma). Myofibroblast differentiation was allowed to proceed for 3 days either in the presence of variable concentrations of pioglitazone or without. Myofibroblast number was determined by immunohistochemistry according to the following protocol. Cells were washed in phosphate buffered saline (PBS), then fixed in 3% paraformaldehyde for 5 mins followed by quenching in 50 mM ammonium chloride. The cells were then washed and permeabilised with 0.2% Triton X-100 in PBS. All antibodies were diluted into 0.2% fish skin gelatin (FSG) (Sigma). Prior to antibody detection non-specific binding was blocked using 0.2% FSG in PBS. Mouse anti-human alpha-smooth muscle actin (Sigma) was diluted 1:100 and incubated with the cells for 45 mins followed by washing. Rabbit anti-mouse immunoglobulin horseradish-peroxidase secondary antibody was incubated for 30 mins. Visualisation used Fast-DAB (Sigma) according to manufacturer's instructions. Cells were counterstained with haemotoxylin. […] Haemotoxylin stained nuclei were counted by the software using size-exclusion parameters which excluded small and large debris. Accuracy was determined within the software using binary overlays of the counted objects to examine if any non-nuclei counts occurred or if any nuclei were missed. […] DAB positive cells were counted by hand on the captured images. Counts are expressed as % positive cells/total cells.

Compound: CCc1ccc(CCOc2ccc(CC3SC(=O)NC3=O)cc2)nc1 (stereo not drawn) [pioglitazone]
- % Myofibroblasts (0.1 μM pioglitazone, p < 0.05): 1.81* %
- % Myofibroblasts (1 μM pioglitazone, p < 0.005): 0.71** %
- % Myofibroblasts (10 μM pioglitazone, p < 0.005): 0.10** %
